Assay results as given in patent US20220142957A1, “TERPENE BASED THERAPEUTIC DEEP EUTECTIC SYSTEM, METHOD OF OBTAINING AND USES THEREOF” (priority 2019, published 2022).

What was measured:
[1] = Cytotoxicity assay in confluent, non-differentiated Caco-2 cells (MTS); format: cell-based, human; settings: human, confluent, non-differentiated Caco-2 cells, isolated compounds, mean ± SD
Experimental: (§1) The cell culture medium and supplements were purchased from Invitrogen (Gibco, Invitrogen Corporation, UK).
(§2) Cells incubated only with culture medium were considered as control. […] At least three independent experiments were performed in triplicate.
(§3) A p-value<0.05 was considered statistically significant.

HT29 cells [2] = assay: Antiproliferative assay in HT29 cells (MTS); format: cell-based, human; settings: 24 hours, mean ± SD
Experimental: In one embodiment, human Caco-2 and HT29 cell lines were obtained from Deutsche Sammlung von Mikroorganismen and Zellkulturen (DSMZ, Germany) and American Type Culture Collection (ATCC, USA), respectively. These cell lines were cultured in RPMI 1640 medium supplemented with 10% of heat-inactivated Fetal Bovine Serum (FBS). […] Cells were maintained at 37° C. with 5% CO2 in a humidified incubator and routinely grown as a monolayer in 75 cm^2 culture flasks. The cell culture medium and supplements were purchased from Invitrogen (Gibco, Invitrogen Corporation, UK). In one embodiment, the antiproliferative effect of […] and standard compounds was evaluated in HT29 cells. Briefly, cells were seeded at a density of 1×10^4 cells/well in 96-well culture plates. […] Cells incubated only with culture medium were considered as control. Cell proliferation was measured after 24 hours using MTS reagent, as mentioned above. Results were expressed in terms of percentage of living cells relative to the control. At least three independent experiments were performed in triplicate. In one embodiment, all data were expressed as mean±Standard Deviation (SD).

HT29 cells [3] = assay: Cell cycle assessment by flow cytometry (propidium iodide); settings: 24 hours, non-cytotoxic concentrations (FIG. 5A)
Caco-2 cells = assay: Cytotoxicity assay in confluent, non-differentiated Caco-2 cells (MTS); format: cell-based, human; settings: isolated compounds, 24 hours, mean ± SD
Experimental: as §1, §2, §3

HT29 cells [4] = assay: Apoptosis by caspase-3 activity (NucView488/MitoView633); format: cell-based, human; settings: 2 mM, 24 hours (FIG. 5B)
Experimental: In one embodiment, apoptosis was evaluated by caspase-3 activity using NucView488™ and MitoView633™ Apoptosis Assay Kit (Biotium, USA) that allows staining of living cells by a far-red fluorescent dye MitoView633™ and the intracellular caspase-3/7 activity and cells nuclei morphological changes by bright green fluorescent dye NucView488™. […] Staining was performed with 200 μL/well of culture medium containing 1 μL of NucView488™ and 1 μL of MitoView633™ for 2 hours. Cells were observed under fluorescence microscope (Leica DM6000, Germany) and image analysis performed using ImageJ software.

Compound	EC50 at 24 h [1] [µM]	EC50 (HT29 cells [2]; Homo sapiens, HT-29, isolated compounds) [µM]	effect on cell cycle (HT29 cells [3])	EC50 (Caco-2 cells) [µM]	EC50 (HT29 cells [2]; isolated compounds) [µM]	induction of apoptosis via caspase-3 activity (HT29 cells [4])
CCCCCCCCCC(=O)O [CA, Capric acid]	1330 ± 223	341 ± 81				
CC(C)Cc1ccc(C(C)C(=O)O)cc1 (stereo not shown) [IBU, Ibuprofen]			promoted cell cycle arrest in G1-phase			
S-Limonene			promoted cell cycle arrest in G1-phase	2640 ± 108	661 ± 25	capable of inducing apoptosis via caspase-3 activity
